Laboratory results from US10292980B2, “GAPDH cascade inhibitor compounds and methods of use and treatment of stress induced disorders including mental illness” (THE JOHNS HOPKINS UNIVERSITY, priority 2012, dated 2019).

Tests used:
GAPDH-Siah1 binding = GAPDH-Siah1 binding (Homo sapiens, UniProt P04406); assay: in vitro binding of purified recombinant GAPDH and GST-Siah1 (GST-agarose pull down, western blot); conditions: GAPDH pre-incubated with compound
Procedure: (§1) FIG. 4A-4D depict a deprenyl derivative compound of the present invention that blocks GAPDH-Siah1 binding. […] FIG. 4B is a graph depicting inhibition of GAPDH-Siah1 binding by the RR compound in vitro. GAPDH was pre-incubated with the RR compound, then GST-Siah1 was added and binding was assessed by GST-agarose pull down followed by western blotting. The graph represents quantification results of the blots from 6 experiments. FIG. 4C is a pair of graphs depicting in vitro MAO activity. FIG. 4D is a bar graph showing glycolytic activity in cultured rat neonatal cardiac cells exposed to 1 nM RR for 48 hours *p<0.05.
To test whether TAC elicits nuclear translocation of GAPDH and activates p300, a specific tool to intervene GAPDH nuclear translocation is needed. Several structural analogues of deprenyl that blocked GAPDH-Siah1 binding and the nuclear GAPDH cascade were previously screened (data not shown).

MAO-A/B = assay: MAO activity assay in cultured myocytes; assay type: cell-based, rat; conditions: concentrations between 0.1 nM and 10^5 nM
Procedure: (§2) HAT activity assay, MEF2 activity assay, MAO activity assay, GAPDH assay: p300 HAT activity was measured using commercially available kit (Biovision), using immunoprecipitation with p300 antibody (Circulation 118, 934-946 (2008)). MEF2 activity was measured using luciferase reporter assay (Panomics). MAO activity assay was measured using commercially available kit (Peninsula Laboratory). GAPDH activity was measured as previously described in (Nat. Cell Biol., 7, 665-674 (2005)). PUMA mRNA expression was determined by real time RT-PCR using SYBR Green fluorescence on a LightCycler instrument (Roche Applied Science). Expression of the gene of interest was divided by the housekeeping gene glyceraldehyde-3-phosphate dehydrogenase (GAPDH) and presented as fold induction of control.
A major challenge to identify a compound that selectively blocks the nuclear GAPDH cascade is their potential inhibition of monoamine oxidases (MAOs), which deprenyl originally harbors. Thus, it was examined whether RR inhibits MAO-A/B in cultured myocytes and a dramatic contrast was observed between RR and deprenyl. There was no inhibition of MAOs by RR in a wide range of concentrations between 0.1 nM and 10^5 nM concentrations (FIG. 4C).

GAPDH = target: T1, GAPDH (Rattus norvegicus, UniProt P04797); assay: GAPDH glycolytic activity in cultured cardiac cells; assay type: cell-based; conditions: cardiac myocytes, 1 nM, 48 hours
T1 construct: endogenous in cells; host or cells: cultured rat neonatal cardiac cells (from Sprague-Dawley rats)
T1 sequence (P04797 whole entry): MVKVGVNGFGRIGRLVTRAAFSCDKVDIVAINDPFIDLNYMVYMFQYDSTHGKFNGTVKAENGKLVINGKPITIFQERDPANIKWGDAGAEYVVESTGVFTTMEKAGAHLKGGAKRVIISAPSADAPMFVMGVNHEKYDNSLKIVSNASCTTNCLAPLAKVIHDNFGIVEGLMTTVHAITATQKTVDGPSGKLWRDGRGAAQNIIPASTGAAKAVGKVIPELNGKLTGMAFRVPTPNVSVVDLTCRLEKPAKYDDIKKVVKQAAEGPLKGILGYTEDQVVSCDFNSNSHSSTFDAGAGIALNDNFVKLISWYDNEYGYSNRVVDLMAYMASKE
Procedure: as §1
as §2, with “control. […]” for “control.”

[1] = tested on: GAPDH-Siah1 binding / nuclear translocation of GAPDH; assay: GAPDH nuclear cascade in cardiac myocytes exposed to ET1 (co-immunoprecipitation, immunostaining, fractionation); assay type: cell-based, rat
Procedure: Physiological analysis, histological analysis: Echocardiography and pressure-volume loop studies were performed as described previously (Takimoto et al., Nat. Med., 11, 214-222 (2005)). 10% formalin fixed heart samples were embedded in paraffin, sectioned and stained for myocyte size (WGA staining) and fibrosis (Masson Trichrome staining) as described previously (Zhang et al., J. Am. Coll. Cardiol., 56, 2021-2030 (2010)). Isolated adult cardiac myocyte or rat neonatal cardiac myocyte was fixed with 50% methanol/50% acetone and stained with antibodies against GAPDH (Millipore), sulphonated GAPDH or HA as previously described.
(§3) Rat neonatal cardiac myocyte culture: Rat neonatal cardiac myocytes (RNCM) were isolated from 1-2-day-old Sprague-Dawley rats, and cultured cells stimulated with 0.05 μM Endothelin-1, with or without 1 nM RR compound for 48 hours. Protein synthesis was assessed by [^3H]leucine incorporation. Adenoviral transfection of wild-type GAPDH and K227A mutant GAPDH was performed at 10-30 moi as previously described.
(§4) Protein and RNA analysis: Total RNA was isolated from cells or left ventricular myocardium with Trizol (Molecular Research Center, Inc, Cincinnati, Ohio) and analyzed by real-time polymerase chain reaction (PCR) with TaqMan probes (Applied Biosystems, Foster City, Calif.). Results were normalized to GAPDH or 18S RNA. Cell lysates or nuclear extracts were obtained from cultured myocytes or ventricular tissue, resolved by SDS-polyacrylamide gel electrophoresis, subjected to immunoblotting and imaged by chemiluminescence as previously described.
To test a role for the GAPDH-p300 signaling in heart hypertrophy, the Gq agonist ET1 was used as a trigger. ET1 is reported to elicit oxidative stress by activating NADPD oxidase and stress is known as a central contributor to cardiac hypertrophic response including pressure-load hypertrophy, as in the TAC model. Thus, cardiac myocytes were exposed to ET1 at 0.05 μM for about 48 hours and the effects on GAPDH signaling was examined. […]

p300 HAT / MEF2 = assay: p300 acetylation and MEF2 luciferase reporter activity in cardiac myocytes treated with ET1; assay type: cell-based, rat
Procedure: as §3, §2
(§5) Augmented p300 activity reportedly leads to cardiac hypertrophic response via activation of myocyte enhancer factor 2 (MEF2), a master transcriptional factor of mal-adaptive cardiac hypertrophy. Thus, acylation of p300, and activity of MEF2 was tested, together with several outcome measures for hypertrophy response. In cardiac myocytes treated with ET1, augmentation of p300 acylation (reflecting p300 HAT activity), an augmented activity of MEF2, and increases in cell surface area, protein synthesis assayed by ^3H-leucine uptake, and B-type natriuretic peptide (BNP) expression were observed (FIGS. 5D, E).

[2] = tested on: rat neonatal cardiac myocytes; assay: hypertrophy response of rat neonatal cardiac myocytes to ET1; assay type: cell-based; conditions: ET1-treated cardiac myocytes, 1 nM
Procedure: as §3, §4, §5

TAC hearts [3] = assay: TAC chronic pressure-overload cardiac hypertrophy model, treatment from time of constriction; assay type: in vivo, mouse
Procedure: Cardiac animal models: All protocols were approved by Animal Care and Use Committee of the Johns Hopkins University. TAC was performed in C57/BL6 mice (Jackson Laboratory) as previously described in (Nat. Med., 11, 214-222 (2005), J. Clin. Invest., 119, 408-420 (2009), J. Am. Coll. Cardiol., 56, 2021-2030 (2010)). Physiological analysis, histological analysis: Echocardiography and pressure-volume loop studies were performed as described previously (Takimoto et al., Nat. Med., 11, 214-222 (2005)). 10% formalin fixed heart samples were embedded in paraffin, sectioned and stained for myocyte size (WGA staining) and fibrosis (Masson Trichrome staining) as described previously (Zhang et al., J. Am. Coll. Cardiol., 56, 2021-2030 (2010)). Isolated adult cardiac myocyte or rat neonatal cardiac myocyte was fixed with 50% methanol/50% acetone and stained with antibodies against GAPDH (Millipore), sulphonated GAPDH or HA as previously described. HAT activity assay, MEF2 activity assay, MAO activity assay, GAPDH assay: p300 HAT activity was measured using commercially available kit (Biovision), using immunoprecipitation with p300 antibody (Circulation 118, 934-946 (2008)). MEF2 activity was measured using luciferase reporter assay (Panomics). MAO activity assay was measured using commercially available kit (Peninsula Laboratory). GAPDH activity was measured as previously described in (Nat. Cell Biol., 7, 665-674 (2005)). PUMA mRNA expression was determined by real time RT-PCR using SYBR Green fluorescence on a LightCycler instrument (Roche Applied Science). Expression of the gene of interest was divided by the housekeeping gene glyceraldehyde-3-phosphate dehydrogenase (GAPDH) and presented as fold induction of control. Protein and RNA analysis: Total RNA was isolated from cells or left ventricular myocardium with Trizol (Molecular Research Center, Inc, Cincinnati, Ohio) and analyzed by real-time polymerase chain reaction (PCR) with TaqMan probes (Applied Biosystems, Foster City, Calif.). Results were normalized to GAPDH or 18S RNA. Cell lysates or nuclear extracts were obtained from cultured myocytes or ventricular tissue, resolved by SDS-polyacrylamide gel electrophoresis, subjected to immunoblotting and imaged by chemiluminescence as previously described. To understand the pathology underlying heart hypertrophy, chronic pressure overload induced by transverse aorta constriction (TAC) is used as an established experimental animal model. Heart hypertrophy is evident at 7 to 10 days after the constriction, which leads to irreversible functional defects in 9 weeks. In the present study, the TAC model was employed and identified GAPDH as a key conveyer of the pathological stress signal to nuclear p300, resulting in disruption of critical homeostasis in vivo. In the present invention, the significance of the nuclear GAPDH cascade in vivo has been shown. With this understanding there is also provided novel therapeutic methods of treatment of stress induced disorders, including, for example, cardiac hypertrophy, which are urgent and very important medical needs.

TAC hearts [4] = assay: TAC model, delayed RR treatment of pre-existing cardiac hypertrophy; assay type: in vivo, mouse
Procedure: Cardiac animal models: All protocols were approved by Animal Care and Use Committee of the Johns Hopkins University. TAC was performed in C57/BL6 mice (Jackson Laboratory) as previously described in (Nat. Med., 11, 214-222 (2005), J. Clin. Invest., 119, 408-420 (2009), J. Am. Coll. Cardiol., 56, 2021-2030 (2010)). Physiological analysis, histological analysis: Echocardiography and pressure-volume loop studies were performed as described previously (Takimoto et al., Nat. Med., 11, 214-222 (2005)). 10% formalin fixed heart samples were embedded in paraffin, sectioned and stained for myocyte size (WGA staining) and fibrosis (Masson Trichrome staining) as described previously (Zhang et al., J. Am. Coll. Cardiol., 56, 2021-2030 (2010)). Isolated adult cardiac myocyte or rat neonatal cardiac myocyte was fixed with 50% methanol/50% acetone and stained with antibodies against GAPDH (Millipore), sulphonated GAPDH or HA as previously described. Protein and RNA analysis: Total RNA was isolated from cells or left ventricular myocardium with Trizol (Molecular Research Center, Inc, Cincinnati, Ohio) and analyzed by real-time polymerase chain reaction (PCR) with TaqMan probes (Applied Biosystems, Foster City, Calif.). Results were normalized to GAPDH or 18S RNA. Cell lysates or nuclear extracts were obtained from cultured myocytes or ventricular tissue, resolved by SDS-polyacrylamide gel electrophoresis, subjected to immunoblotting and imaged by chemiluminescence as previously described. In most clinical settings, medication and treatment starts only after pathological changes occur at least to some extent.

DN-DISC1 mice = assay: three chamber social novelty test in DN-DISC1 mice; assay type: in vivo, mouse
From the text: DN-DISC1 mice express a putative dominant-negative C-terminal truncated DISC1 under expression control of the α CaMKII promoter. Homozygous DN-DISC1 mice were created by systematic cross-breeding of heterozygotes followed by interbreeding of homozygotes at the Johns Hopkins School of Medicine. In the current studies only homozygous males were used. At 3 to 6 months of age, mice were transferred to the Neurogenetics and Behavior Center, Johns Hopkins University, for behavioral testing. They were housed three or four to a cage under a 12 hour light/dark cycle (lights on at 7:00 A.M to 7:00 P.M) and weighed between 25 and 35 grams prior to food deprivation.
Measurement of Social Novelty Test: Wt and DN-DISC1 mice were treated with RR compound or control starting at postnatal day 35 (0.25 mg/kg, i.p./day) and continuing throughout the three-chamber social interaction test in adulthood as described in Johnson et al., supra.
The inventors treated DN-DISC1 mice with RR starting at postnatal day 35 (0.25 mg/kg, i.p./day) and continuing throughout the three-chamber social interaction test in adulthood.

[5] = ET1 exposure, co-treatment with RR
[6] = ET1-treated cardiac myocytes, 1 nM
[7] = 0.25 mg/kg/day i.p. from constriction, measured after 10th day (TAC10)
[8] = pressure volume loop analysis, RR versus vehicle treatment

Chain of GAPDH-Siah1 binding (P04406 whole entry): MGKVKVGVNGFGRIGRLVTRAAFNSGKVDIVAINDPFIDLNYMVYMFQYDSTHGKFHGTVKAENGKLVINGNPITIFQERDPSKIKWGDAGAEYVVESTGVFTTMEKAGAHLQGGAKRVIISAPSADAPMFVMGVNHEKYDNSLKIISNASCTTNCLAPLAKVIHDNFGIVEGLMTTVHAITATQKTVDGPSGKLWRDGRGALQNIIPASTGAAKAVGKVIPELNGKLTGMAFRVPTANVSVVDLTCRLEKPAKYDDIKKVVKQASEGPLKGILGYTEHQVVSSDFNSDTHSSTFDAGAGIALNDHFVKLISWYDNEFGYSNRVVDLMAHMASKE

GAPDH glycolytic activity (GAPDH): did not show any influence | GAPDH-Siah1 binding augmented by ET1 ([1]; ET1 0.05 μM about 48 hours, co-administration of RR): normalized | nuclear translocation of GAPDH in response to ET1 ([1]; ET1 0.05 μM, co-treatment 1 nM): blocked | accumulation of sulphonated GAPDH in the nucleus [1, 5]: blocked | augmentation of p300 acylation (reflecting p300 HAT activity) (p300 HAT / MEF2; [6]): clearly blocked | augmented activity of MEF2 (p300 HAT / MEF2; [6]): clearly blocked | augmentation of p300 acetylation (reflecting p300 HAT activity) in the nucleus (p300 HAT / MEF2; [5]): blocked
Structure (SMILES): C#CCN1[C@H](C)Cc2ccccc2[C@H]1C [RR, (1R,3R)-1,3-dimethyl-2-propargyl-1,2,3,4-tetrahydroisoquinoline]
GAPDH-Siah1 interaction in vitro (GAPDH-Siah1 binding): blocked the interaction at nanomolar concentrations | inhibition of MAOs (MAO-A/B): no inhibition | PUMA expression [2]: unchanged | increase in B-type natriuretic peptide (BNP) expression [2]: clearly blocked | increase in cell surface area [2]: clearly blocked | increase in protein synthesis assayed by 3H-leucine uptake [2]: clearly blocked | levels of nuclear GAPDH in TAC hearts (TAC hearts [3]; [7]): dramatically reduced | levels of p300 HAT activity in TAC hearts (TAC hearts [3]; [7]): dramatically reduced | cardiac hypertrophy remodeling assessed by cardiac myocyte cell size (TAC hearts [3]; 0.25 mg/kg/day i.p., TAC): ameliorated | cardiac hypertrophy remodeling assessed by fibrosis (TAC hearts [3]; 0.25 mg/kg/day i.p., TAC): ameliorated | cardiac hypertrophy remodeling assessed by heart weight (TAC hearts [3]; 0.25 mg/kg/day i.p., TAC): ameliorated | TAC-induced left ventricular dilatation (LV-EDD) (TAC hearts [3]; echocardiogram): significantly inhibited | TAC-induced reduction in Fractional Shortening (% FS) (TAC hearts [3]; echocardiogram): significantly inhibited | cardiac performance despite sustained pressure-overload stress (TAC hearts [3]; invasive hemodynamic study, pressure volume loop analysis): improvement of cardiac performance | pathological gene expression profile: down-regulation of calcium handling proteins (TAC hearts [3]; myocardial mRNA, TAC): significantly improved or normalized | pathological gene expression profile: fetal gene re-expression (BNP, β-MHC) (TAC hearts [3]; myocardial mRNA, TAC): significantly improved or normalized | diastolic relaxation properties (Tau) (TAC hearts [3]; [8]): significantly better | systolic function (dPdtmx) (TAC hearts [3]; [8]): significantly better | expression profile of cardiac fetal gene (BNP) (TAC hearts [4]; delayed treatment, RR-treated versus vehicle group): significant improvement | cardiac myocyte size (terminal postmortem assessment) (TAC hearts [4]; treatment initiated 1 week after TAC, about two weeks): smaller | further LV mass increase from sustained pressure overload (TAC hearts [4]; treatment initiated 1 week after TAC, about two weeks of treatment, echocardiogram): significantly blocked | social deficit (impaired social recognition) (DN-DISC1 mice; 0.25 mg/kg, i.p./day from postnatal day 35 through testing in adulthood): ameliorated the social deficit | sniffing preference for stranger versus familiar mouse (DN-DISC1 mice; DISC1 mice treated with RR (n=7), p<0.05): preferentially sniffed the stranger mouse over the familiar mouse
